pIC50: −log10 of the molar value.
Legend:
EP4 receptor = molecular target: T1, EP4 receptor (Homo sapiens, UniProt P35408); assay: Assay for binding to prostaglandin E2 receptors, 3H-PGE2 displacement (EP4); settings: displacement of 3H-prostaglandin E2, membranes of transfected 293S cells
T1 construct: These full length receptors are used to prepare 293S cells expressing the EP1, EP2, EP3 and EP4 receptors; expressed in transfected cells; membranes
Experimental: (§1) All operations are performed at 4° C. […] The cells are lysed by sonification with a Branson Sonifier (Model #250, Branson Ultrasonics Corporation, Danbury, Conn.) in 2 fifteen second bursts. Unlysed cells and debris are removed by centrifugation at 100×g for 10 min. Membranes are then harvested by centrifugation at 45,000×g for 30 minutes. Pelleted membranes are resuspended to 3-10 mg of protein per ml of Buffer A, the protein concentration being determined by the method of Bradford [M. Bradford, Anal. Biochem., 72, 248 (1976)]. Resuspended membranes are then stored frozen at −80° C. until use.
(§2) Frozen membranes prepared as above are thawed and diluted to 1 mg protein per ml in Buffer A above. One volume of membrane preparation is combined with 0.05 volume test compound or buffer and one volume of 3 nM ^3H-prostaglandin E2 (#TRK 431, Amersham, Arlington Heights, Ill.) in Buffer A. The mixture (205 μL total volume) is incubated for 1 hour at 25° C. The membranes are then recovered by filtration through type GF/C glass fiber filters (#1205-401, Wallac, Gaithersburg, Md.) using a Tomtec harvester (Model Mach 11/96, Tomtec, Orange, Conn.). […] To determine the amount of ^3H-prostaglandin bound to the membranes, the dried filters are placed into plastic bags with scintillation fluid and counted in a LKB 1205 Betaplate reader (Wallac, Gaithersburg, Md.). […]

EP1 receptor = molecular target: T2, EP1 receptor (Homo sapiens, UniProt P34995); assay: Assay for binding to prostaglandin E2 receptors, 3H-PGE2 displacement (EP1); settings: displacement of 3H-prostaglandin E2, membranes of transfected 293S cells; read-out: IC50 at EP1 receptor subtype
T2 construct: These full length receptors are used to prepare 293S cells expressing the EP1, EP2, EP3 and EP4 receptors; expressed in transfected cells; membranes
T2 sequence (P34995 1-402): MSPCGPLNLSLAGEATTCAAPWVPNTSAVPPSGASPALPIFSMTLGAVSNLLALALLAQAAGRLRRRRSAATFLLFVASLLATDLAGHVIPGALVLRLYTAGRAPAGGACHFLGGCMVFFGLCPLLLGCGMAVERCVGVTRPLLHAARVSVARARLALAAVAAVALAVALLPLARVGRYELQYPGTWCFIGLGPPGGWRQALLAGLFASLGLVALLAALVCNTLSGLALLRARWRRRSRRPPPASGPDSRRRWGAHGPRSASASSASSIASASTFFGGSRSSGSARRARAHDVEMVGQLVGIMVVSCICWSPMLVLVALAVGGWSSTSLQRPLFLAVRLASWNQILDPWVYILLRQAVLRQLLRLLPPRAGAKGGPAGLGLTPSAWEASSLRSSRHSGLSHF
Experimental: as §1, §2

EP2 receptor = molecular target: T3, EP2 receptor (Homo sapiens, UniProt P43116); assay: Assay for binding to prostaglandin E2 receptors, 3H-PGE2 displacement (EP2); settings: displacement of 3H-prostaglandin E2, membranes of transfected 293S cells; read-out: IC50 at EP2 receptor subtype
T3 construct: These full length receptors are used to prepare 293S cells expressing the EP1, EP2, EP3 and EP4 receptors; expressed in transfected cells; membranes
Experimental: as §1, §2

EP3 receptor = molecular target: T4, EP3 receptor (Homo sapiens, UniProt P43115); assay: Assay for binding to prostaglandin E2 receptors, 3H-PGE2 displacement (EP3); settings: displacement of 3H-prostaglandin E2, membranes of transfected 293S cells; read-out: IC50 at EP3 receptor subtype
T4 construct: These full length receptors are used to prepare 293S cells expressing the EP1, EP2, EP3 and EP4 receptors; expressed in transfected cells; membranes
T4 sequence (P43115 1-390): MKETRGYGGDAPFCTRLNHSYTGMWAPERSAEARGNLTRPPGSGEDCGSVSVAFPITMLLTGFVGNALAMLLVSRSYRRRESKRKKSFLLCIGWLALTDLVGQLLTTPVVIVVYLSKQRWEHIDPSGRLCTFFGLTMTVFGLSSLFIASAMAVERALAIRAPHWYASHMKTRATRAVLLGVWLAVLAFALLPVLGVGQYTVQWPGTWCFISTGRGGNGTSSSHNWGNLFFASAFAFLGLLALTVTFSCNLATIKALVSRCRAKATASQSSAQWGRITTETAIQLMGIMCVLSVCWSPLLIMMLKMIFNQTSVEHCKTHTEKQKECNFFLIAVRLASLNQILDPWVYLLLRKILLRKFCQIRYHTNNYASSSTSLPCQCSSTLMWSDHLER
Experimental: as §1, §2

[1] = system: nephrotoxic acute renal failure model; assay: Nephrotoxic acute renal failure model; assay type: in vivo, rat
Experimental: The remnant rat kidney (5/6 nephrectomy) model employed was essentially as previously described in the literature (Vukicevic et al., Journal of Bone and Mineral Research, 2:533-545 (1987)). In brief, male rats (4 months old, weighing approximately 400 g) were anesthesized by intraperitoneal administration of ketamin (20 mg/kg) and then subjected to unilateral nephrectomy (left kidney). All animals were subjected to intraperitoneal administration of 1-3 ml of prewarmed saline to compensate for any fluid loss during the surgery. After one week, ⅔ of the remaining kidney was surgically removed. The rats were allowed to recover for one or two weeks prior to the initiation of the therapy for the prevention of the disease.
Blood samples (0.5 ml) were obtained from the orbital plexus and serum creatinine, BUN (blood urea nitrogen), calcium, phosphate and other blood chemistries were monitored throughout the study. Urine was collected on metabolic cages for 24 h. Creatinine was measured by a Jaffe method. A. W. Whelton, A. J. Watson and R. C. Rock: “Nitrogen Metabolites and Renal Function,” in: Clinical Chemistry (Eds: C. A. Burtis and E. R. Ashwood) W. B. Saunders, Philadelphia, Pa., 1513-1575 (1994). BUN was measured by a glutamate dehydrogenase ultraviolet method, phosphorus by a molybdate method, and calcium by an o-cresolphtaleine method. R. A. Lafayette, R. D. Perrone and A. S. Levey: “Laboratory Evaluation of Renal Function,” in: Diseases of the Kidney (Eds: R. W. Schrier and C. W. Gottschalk), Little, Brown and Company, Inc., Vol. 6, 307-354 (1997). The GFR was calculated using […] (24 hr collection) and adjusted to body weights. The cumulative survival rate was also observed and recorded for both the control and the experimental groups. The kidney was subjected to histomorphometric analysis and scored for tissue pathology.
Two different models of acute renal failure were used: the nephrotoxic acute renal failure model, as described above, and the reperfusion renal injury model, which involved clamping both renal arteries for 60 minutes. […]

[2] = system: reperfusion renal injury model; assay: Reperfusion renal injury model (clamping both renal arteries for 60 minutes); assay type: in vivo, rat; settings: 24 hours following reperfusion
Experimental: Two different models of acute renal failure were used: the nephrotoxic acute renal failure model, as described above, and the reperfusion renal injury model, which involved clamping both renal arteries for 60 minutes. (K. J. Kelly, W. W. Williams, R. B. Colvin and J. V. Bonventure, “Intercellular Adhesion Molecule 1 Protects the Kidney Against Ischemic Injury,” Proc. Natl. Acad. Sci. USA, 91:812-816 (1994); and S. Vukicevic, V. Basic, D. Rogic, N. Basic, M. S. Shih, A. Shepard, D. Jin, D. Bosukonda, W. Jones, H. Dorai, S. Ryan, D. Griffiths, J. Maliakal, M. Jelic, M. Pastorcic, A. Stavljenic and K. Sampath, “Osteogenic Protein-1 (Bone Morphogenetic Protein-7) Reduces Severity of Injury After Ischemic Acute Renal Failure in Rat,” J. Clin. Invest.,102:202-214 (1998).)
The animals were dosed with the EP4 agonist just prior to the initiation of the nephrotoxic insult.

T3 sequence (P43116 whole entry): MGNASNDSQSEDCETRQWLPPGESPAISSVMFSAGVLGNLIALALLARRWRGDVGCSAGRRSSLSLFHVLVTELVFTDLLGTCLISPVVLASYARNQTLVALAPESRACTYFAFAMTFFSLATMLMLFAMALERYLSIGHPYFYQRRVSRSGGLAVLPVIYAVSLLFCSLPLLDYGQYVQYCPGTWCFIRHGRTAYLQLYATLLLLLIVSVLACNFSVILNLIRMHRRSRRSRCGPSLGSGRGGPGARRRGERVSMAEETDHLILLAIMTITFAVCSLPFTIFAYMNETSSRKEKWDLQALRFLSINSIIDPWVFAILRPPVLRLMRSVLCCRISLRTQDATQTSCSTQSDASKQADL
T1 sequence (P35408 whole entry): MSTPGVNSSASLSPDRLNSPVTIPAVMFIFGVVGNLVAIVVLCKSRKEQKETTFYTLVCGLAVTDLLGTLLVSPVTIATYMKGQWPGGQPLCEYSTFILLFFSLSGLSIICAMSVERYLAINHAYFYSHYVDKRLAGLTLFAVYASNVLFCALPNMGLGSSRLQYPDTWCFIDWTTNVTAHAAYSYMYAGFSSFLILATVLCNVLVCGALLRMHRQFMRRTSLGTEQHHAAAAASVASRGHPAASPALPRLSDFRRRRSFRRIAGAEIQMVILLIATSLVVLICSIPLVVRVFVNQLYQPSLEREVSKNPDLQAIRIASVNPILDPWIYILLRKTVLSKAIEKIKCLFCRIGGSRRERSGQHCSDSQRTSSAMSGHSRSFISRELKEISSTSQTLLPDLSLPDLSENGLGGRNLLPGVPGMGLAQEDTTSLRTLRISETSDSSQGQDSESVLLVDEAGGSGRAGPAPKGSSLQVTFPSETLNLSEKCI

## O=C(O)CCCCCCN1C(=O)CCC1CCC(O)Cc1ccccc1 (centres unmarked) [7-(2-(3-hydroxy-4-phenyl-butyl)-5-oxo-pyrrolidin-1-yl)-heptanoic acid]
EP4 receptor
  pIC50: 7.80
EP1 receptor
  pIC50: < 5.49
EP2 receptor
  pIC50: < 5.49
EP3 receptor
  pIC50: < 5.49
[1]; dose of 10 mg/kg, control group four out of ten
  animals survived after seven days: nine out of ten
[1]; dosed just prior to the nephrotoxic insult
  protection against renal injury, based on serum parameters: effective in protecting against renal injury
[1]; doses 1 mg/kg and 10 mg/kg, 10 mg/kg better than 1 mg/kg
  survival time of animals: increased the survival time of animals in a dose dependent manner
[2]
  efficacy in reperfusion renal injury: effective 24 hours following reperfusion
